Test results as given in patent US12545639B2, “3-substituted phenylamidine compounds, preparation and use thereof” (PI INDUSTRIES LTD., priority 2019, dated 2026).

Assays:
Pyricularia oryzae = experiment: microbe, parasite or virus in culture; format: cell-based; conditions: 168 h, read-out: control compared to the untreated check (radial growth)
[1] = system: Septoria lycopersici/Corynespora cassicola (CORYCA); experiment: Septoria lycopersici/Corynespora cassicola (CORYCA) (leaf spot of tomato) in vitro test, radial growth on potato dextrose agar; format: cell-based; conditions: 168 h, 300 ppm in potato dextrose agar, 25° C., 70% relative humidity, seven days, read-out: control compared to the untreated check (radial growth)
Botrytis cinerea = Botrytis cinerea (gray mold) in vitro test, radial growth on potato dextrose agar; format: cell-based; conditions: 168 h, 300 ppm in potato dextrose agar, 22° C., 90% relative humidity, seven days, read-out: control compared to the untreated check (radial growth)
Alternaria solani = Alternaria solani (early blight of tomato/potato) in vitro test, radial growth on potato dextrose agar; format: cell-based; conditions: 168 h, 300 ppm in potato dextrose agar, 25° C., 60% relative humidity, seven days, read-out: control compared to the untreated check (radial growth)
Rhizoctonia solani = Rhizoctonia solani (rice sheath blight/potato black scurf) in vitro test, radial growth on potato dextrose agar; format: cell-based; conditions: 168 h, 300 ppm in potato dextrose agar, 25° C., 60% relative humidity, seven days, read-out: control compared to the untreated check (radial growth)
Phakopsora pachyrhizi = Phakopsora pachyrhizi test in soybean, preventive, in vivo on plants; conditions: in Glycine max, read-out: Efficacy (% control), disease severity compared to the untreated check

CCN(C)C=Nc1cc(C#N)cc(Cc2ccccc2)c1C [Compound 308, N′-(3-benzyl-5-cyano-2-methylphenyl)-N-ethyl-N-methylformimidamide]
≥ 70%: inhibition of growth at 300 ppm (Pyricularia oryzae) | inhibition of growth at 300 ppm [1] | inhibition of growth at 300 ppm (Botrytis cinerea) | inhibition of growth at 300 ppm (Alternaria solani) | inhibition of growth at 300 ppm (Rhizoctonia solani)

CCN(C)C=Nc1cc(F)cc(Cc2cccc(Br)c2)c1C [Compound 205, N′-(3-(3-bromobenzyl)-5-fluoro-2-methylphenyl)-N-ethyl-N-methylformimidamide]
≥ 70%: inhibition of growth at 300 ppm (Pyricularia oryzae) | inhibition of growth at 300 ppm [1] | pest or weed control at 500 ppm (Phakopsora pachyrhizi) | inhibition of growth at 300 ppm (Botrytis cinerea) | inhibition of growth at 300 ppm (Alternaria solani) | inhibition of growth at 300 ppm (Rhizoctonia solani)

CCN(C)C=Nc1cc(F)cc(N(C)c2cc(C)ccc2Cl)c1C [Compound 117, N′-(3-((2-chloro-5-methylphenyl)(methyl)amino)-5-fluoro-2-methylphenyl)-N-ethyl-N-methylformimidamide]
≥ 70%: inhibition of growth at 300 ppm (Pyricularia oryzae) | inhibition of growth at 300 ppm [1] | pest or weed control at 500 ppm (Phakopsora pachyrhizi) | inhibition of growth at 300 ppm (Botrytis cinerea) | inhibition of growth at 300 ppm (Alternaria solani)

CCN(C)C=Nc1cc(Cl)cc(Nc2ccccc2OC(F)(F)F)c1C [Compound 301, N′-(5-chloro-2-methyl-3-((2-(trifluoromethoxy)phenyl)amino)phenyl)-N-ethyl-N-methylformimidamide]
≥ 70%: inhibition of growth at 300 ppm (Pyricularia oryzae) | inhibition of growth at 300 ppm [1] | pest or weed control at 500 ppm (Phakopsora pachyrhizi) | inhibition of growth at 300 ppm (Botrytis cinerea) | inhibition of growth at 300 ppm (Alternaria solani) | inhibition of growth at 300 ppm (Rhizoctonia solani)

CCN(C)C=Nc1cc(C)cc(Nc2ccc(F)c(F)c2)c1Cl [Compound 72, N′-(2-chloro-3-((3,4-difluorophenyl)amino)-5-methylphenyl)-N-ethyl-N-methylformimidamide]
≥ 70%: inhibition of growth at 300 ppm (Pyricularia oryzae) | inhibition of growth at 300 ppm [1] | inhibition of growth at 300 ppm (Botrytis cinerea) | inhibition of growth at 300 ppm (Alternaria solani) | inhibition of growth at 300 ppm (Rhizoctonia solani)

CCN(C)C=Nc1cc(F)cc(N(C)c2ccc(Cl)cc2F)c1C [Compound 140, N′-(3-((4-chloro-2-fluorophenyl)(methyl)amino)-5-fluoro-2-methylphenyl)-N-ethyl-N-methylformimidamide]
≥ 70%: inhibition of growth at 300 ppm (Pyricularia oryzae) | inhibition of growth at 300 ppm [1] | inhibition of growth at 300 ppm (Botrytis cinerea) | inhibition of growth at 300 ppm (Alternaria solani) | inhibition of growth at 300 ppm (Rhizoctonia solani)

CCN(C)C=Nc1cc(C)cc(Cc2ccccc2)c1Cl [Compound 70, N′-(3-benzyl-2-chloro-5-methylphenyl)-N-ethyl-N-methylformimidamide]
≥ 70%: inhibition of growth at 300 ppm (Pyricularia oryzae) | inhibition of growth at 300 ppm [1] | pest or weed control at 500 ppm (Phakopsora pachyrhizi) | inhibition of growth at 300 ppm (Botrytis cinerea) | inhibition of growth at 300 ppm (Alternaria solani) | inhibition of growth at 300 ppm (Rhizoctonia solani)

CCN(C)C=Nc1cc(F)cc(N(C)c2cc(F)cc(F)c2)c1C [Compound 84, N′-(3-((3,5-difluorophenyl)(methyl)amino)-5-fluoro-2-methylphenyl)-N-ethyl-N-methylformimidamide]
≥ 70%: inhibition of growth at 300 ppm [1] | pest or weed control at 500 ppm (Phakopsora pachyrhizi) | inhibition of growth at 300 ppm (Botrytis cinerea) | inhibition of growth at 300 ppm (Alternaria solani) | inhibition of growth at 300 ppm (Rhizoctonia solani)

CCN(C)C=Nc1cc(F)cc(N(C)c2cc(C)cc(F)c2)c1C [Compound 119, N-ethyl-N′-(5-fluoro-3-((3-fluoro-5-methylphenyl)(methyl)amino)-2-methylphenyl)-N-methylformimidamide]
≥ 70%: inhibition of growth at 300 ppm (Pyricularia oryzae) | inhibition of growth at 300 ppm [1] | pest or weed control at 500 ppm (Phakopsora pachyrhizi) | inhibition of growth at 300 ppm (Botrytis cinerea) | inhibition of growth at 300 ppm (Alternaria solani)

CCN(C)C=Nc1cc(C)cc(N(C)c2ccccc2)c1Cl [Compound 10, N′-(2-chloro-5-methyl-3-(methyl(phenyl)amino)phenyl)-N-ethyl-N-methylformimidamide]
≥ 70%: inhibition of growth at 300 ppm (Pyricularia oryzae) | inhibition of growth at 300 ppm [1] | inhibition of growth at 300 ppm (Botrytis cinerea) | inhibition of growth at 300 ppm (Alternaria solani)

CCN(C)C=Nc1cc(Cl)cc(N(C)c2ccccc2)c1C [Compound 159, N′-(5-chloro-2-methyl-3-(methyl(phenyl)amino)phenyl)-N-ethyl-N-methylformimidamide]
≥ 70%: inhibition of growth at 300 ppm (Pyricularia oryzae) | inhibition of growth at 300 ppm [1] | pest or weed control at 500 ppm (Phakopsora pachyrhizi) | inhibition of growth at 300 ppm (Botrytis cinerea) | inhibition of growth at 300 ppm (Alternaria solani)

CCN(C)C=Nc1cc(F)cc(Cc2ccccc2F)c1C [Compound 141, N-ethyl-N′-(5-fluoro-3-(2-fluorobenzyl)-2-methylphenyl)-N-methylformimidamide]
≥ 70%: inhibition of growth at 300 ppm (Pyricularia oryzae) | inhibition of growth at 300 ppm [1] | inhibition of growth at 300 ppm (Botrytis cinerea) | inhibition of growth at 300 ppm (Rhizoctonia solani)

CCN(C)C=Nc1cc(F)cc(Nc2ccc(F)cc2F)c1C [Compound 76, N′-(3-((2,4-difluorophenyl)amino)-5-fluoro-2-methylphenyl)-N-ethyl-N-methylformimidamide]
≥ 70%: inhibition of growth at 300 ppm (Pyricularia oryzae) | inhibition of growth at 300 ppm [1] | inhibition of growth at 300 ppm (Botrytis cinerea) | inhibition of growth at 300 ppm (Alternaria solani) | inhibition of growth at 300 ppm (Rhizoctonia solani)

CCN(C)C=Nc1cc(F)cc(Nc2ccccc2OC(F)(F)F)c1C [Compound 303, N-ethyl-N′-(5-fluoro-2-methyl-3-((2-(trifluoromethoxy)phenyl)amino)phenyl)-N-methylformimidamide]
≥ 70%: inhibition of growth at 300 ppm (Pyricularia oryzae) | inhibition of growth at 300 ppm [1] | inhibition of growth at 300 ppm (Botrytis cinerea) | inhibition of growth at 300 ppm (Alternaria solani) | inhibition of growth at 300 ppm (Rhizoctonia solani)

CCN(C)C=Nc1cc(OC)cc(Nc2ccc(F)c(OC)c2)c1C [Compound 276, N-ethyl-N′-(3-((4-fluoro-3-methoxyphenyl)amino)-5-methoxy-2-methylphenyl)-N-methylformimidamide]
≥ 70%: inhibition of growth at 300 ppm (Pyricularia oryzae) | inhibition of growth at 300 ppm [1] | pest or weed control at 500 ppm (Phakopsora pachyrhizi) | inhibition of growth at 300 ppm (Alternaria solani) | inhibition of growth at 300 ppm (Rhizoctonia solani)

CCN(C)C=Nc1cc(F)cc(Nc2ccc(Cl)cc2F)c1C [Compound 136, N′-(3-((4-chloro-2-fluorophenyl)amino)-5-fluoro-2-methylphenyl)-N-ethyl-N-methylformimidamide]
≥ 70%: inhibition of growth at 300 ppm (Pyricularia oryzae) | inhibition of growth at 300 ppm [1] | inhibition of growth at 300 ppm (Botrytis cinerea) | inhibition of growth at 300 ppm (Alternaria solani) | inhibition of growth at 300 ppm (Rhizoctonia solani)

CCN(C)C=Nc1cc(C#N)cc(Cc2cccc(F)c2)c1C [Compound 297, N′-(5-cyano-3-(3-fluorobenzyl)-2-methylphenyl)-N-ethyl-N-methylformimidamide]
≥ 70%: inhibition of growth at 300 ppm (Pyricularia oryzae) | inhibition of growth at 300 ppm [1] | pest or weed control at 500 ppm (Phakopsora pachyrhizi) | inhibition of growth at 300 ppm (Botrytis cinerea) | inhibition of growth at 300 ppm (Alternaria solani)

CCN(C)C=Nc1cc(Cl)cc(Nc2cccc(F)c2)c1C [Compound 166, N′-(5-chloro-3-((3-fluorophenyl)amino)-2-methylphenyl)-N-ethyl-N-methylformimidamide]
≥ 70%: inhibition of growth at 300 ppm (Pyricularia oryzae) | inhibition of growth at 300 ppm [1] | inhibition of growth at 300 ppm (Botrytis cinerea) | inhibition of growth at 300 ppm (Alternaria solani)

CCN(C)C=Nc1cc(C)cc(N(C)c2cccc(C)c2)c1Cl [Compound 43, N′-(2-chloro-5-methyl-3-(methyl(m-tolyl)amino)phenyl)-N-ethyl-N-methylformimidamide]
≥ 70%: inhibition of growth at 300 ppm [1] | pest or weed control at 500 ppm (Phakopsora pachyrhizi) | inhibition of growth at 300 ppm (Botrytis cinerea) | inhibition of growth at 300 ppm (Alternaria solani)

CCN(C)C=Nc1cc(C)cc(Nc2ccccc2OC(F)(F)F)c1Cl [Compound 302, N′-(2-chloro-5-methyl-3-((2-(trifluoromethoxy)phenyl)amino)phenyl)-N-ethyl-N-methylformimidamide]
≥ 70%: inhibition of growth at 300 ppm (Pyricularia oryzae) | inhibition of growth at 300 ppm [1] | inhibition of growth at 300 ppm (Botrytis cinerea) | inhibition of growth at 300 ppm (Alternaria solani) | inhibition of growth at 300 ppm (Rhizoctonia solani)
